Test results taken from patent US10208034B2, “Quinoline derivative” (ONO PHARMACEUTICAL CO., LTD., priority 2014, dated 2019).

Target: T1, Human CYP2C8 (Homo sapiens, UniProt P10632)
T1 construct: purchased Cypex; host or cells: E. coli
T1 sequence (P10632 1-490): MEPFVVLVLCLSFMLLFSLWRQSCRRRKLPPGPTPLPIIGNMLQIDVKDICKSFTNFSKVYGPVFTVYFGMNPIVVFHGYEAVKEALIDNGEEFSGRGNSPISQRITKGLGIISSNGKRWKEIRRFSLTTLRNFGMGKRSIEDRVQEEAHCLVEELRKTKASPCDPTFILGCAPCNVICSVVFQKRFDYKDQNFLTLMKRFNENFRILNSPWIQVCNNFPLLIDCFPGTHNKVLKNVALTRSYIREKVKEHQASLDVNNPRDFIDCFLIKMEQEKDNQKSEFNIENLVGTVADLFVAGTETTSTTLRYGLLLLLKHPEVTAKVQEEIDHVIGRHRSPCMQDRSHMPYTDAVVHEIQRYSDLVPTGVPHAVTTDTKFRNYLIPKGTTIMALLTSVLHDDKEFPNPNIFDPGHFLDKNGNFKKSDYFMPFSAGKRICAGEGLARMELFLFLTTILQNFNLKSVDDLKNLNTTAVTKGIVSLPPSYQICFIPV
Assay: Inhibitory activity of drug-metabolizing enzyme (human CYP2C8 inhibition effect)
Type: in vitro ADME
Details: E. coli-expressed CYP2C8, Luciferin-ME substrate, 37° C. 30 min, from inhibition at 1 and 10 μmol/L
Procedure: The reaction was carried out in a 384-well plate. As the positive control substance (CYP2C8: quercetin), a solution, which had been adjusted with DMSO to have 300 times higher concentration than the final concentration (CYP2C8: 22.5 and 225 μmol/L) and been 75-fold diluted with purified water containing 2.7% acetonitrile, was prepared (CYP2C8: 0.3 and 3 μmol/L). […] Thereafter, 16 μL of luciferase solution was added to stop the reaction and to allow luciferin to emit light, and the luminescence intensity of the reaction solution was measured. The inhibition rate is a reduction rate (inhibition rate) of the luminescence intensity when compared with the control in which the reaction was carried out by the addition of DMSO in place of the test compound solution. The inhibition rate was calculated from the following mathematical formula. Inhibition rate (%)=100−{(luminescence intensity of test compound−background luminescence intensity)/(luminescence intensity of control−background luminescence intensity)×100} [Math. […]
The IC50 value of the compound of the present invention was measured using the measurement method described above.

| IC50 [µM] | SMILES |
| --- | --- |
| > 10 | COc1cc2nccc(Oc3ccc(NC(=O)c4cc(C(C)=O)cn(-c5ccccc5)c4=O)nc3)c2cc1OC [Example 21, 5-acetyl-N-{5-[(6,7-dimethoxy-4-quinolinyl)oxy]-2-pyridinyl}-2-oxo-1-phenyl-1,2-dihydro-3-pyridinecarboxamide] |
| > 10 | COc1cc2nccc(Oc3ccc(NC(=O)c4c5c(cn(-c6ccccc6)c4=O)C(=O)CCC5)nc3)c2cc1OC [Example 42, N-{5-[(6,7-dimethoxy-4-quinolinyl)oxy]-2-pyridinyl}-3,8-dioxo-2-phenyl-2,3,5,6,7,8-hexahydro-4-isoquinolinecarboxamide] |
